The target in one test is T1, human D4.2 receptor (Homo sapiens, UniProt P21917, DEL265-296).
T1 construct: expressed in transfected cells; host or cells: CHO K1 cells
T1 sequence (P21917 with tags, fused parts or gaps DEL265-296): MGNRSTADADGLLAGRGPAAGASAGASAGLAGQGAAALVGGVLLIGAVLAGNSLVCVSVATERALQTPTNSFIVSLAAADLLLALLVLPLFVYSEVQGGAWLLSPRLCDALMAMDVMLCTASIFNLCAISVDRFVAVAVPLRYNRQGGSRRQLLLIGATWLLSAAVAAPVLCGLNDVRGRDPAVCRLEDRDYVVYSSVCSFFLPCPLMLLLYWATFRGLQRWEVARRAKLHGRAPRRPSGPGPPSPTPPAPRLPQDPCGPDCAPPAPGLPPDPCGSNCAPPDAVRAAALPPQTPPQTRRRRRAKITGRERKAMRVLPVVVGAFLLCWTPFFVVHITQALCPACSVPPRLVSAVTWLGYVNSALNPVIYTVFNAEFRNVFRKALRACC
The experiment in a line: Inhibition of [3H]spiperone binding to human dopamine D4.2 receptors. The note with it: human D4.2, CHO K1 membranes. From the text:
(§1) A cell line expressing human dopamine D2 (Long form) receptors was purchased from Oregon Health Sciences University, Portland, Oreg. The D2 receptor cDNA was subcloned into an expression vector, pRc/CMV. The plasmids were transfected by electroporation into CHO K1 cells. A single stable transfectant, resistant to the antibiotic 418, was isolated and selected for use in the binding studies. For D4 binding, CHO K1 cells stably transfected to express the human recombinant dopamine D4.2 receptor subtype, as described by Shih, et al., "The expression and functional characterization of human dopamine D4.2 receptor in CHO K1 cells," Soc. Neurosci., 1995;21(Part 1):621.
(§2) CHO K1 cells expressing either human D2 and D4.2 receptors were grown in 162 cm^2 culture flasks in F12 medium (Gibco Laboratories, Grand Island, N.Y.) supplemented with 10% fetal bovine serum (FBS, Hyclone, Logan, Utah) in an atmosphere of 5% CO2 /95% air at 37° C. Cells were grown until confluent, after which growth medium was removed and replaced with 0.02% ethylene diamine tetracetate (EDTA) in a phosphate-buffered saline solution (Sigma Chemical Co., St. Louis, Mo.) and scraped from the flasks. The cells were centrifuged at about 1000×g for 10 minutes at […] and then resuspended in TEM buffer (25 mM Tris-HCl, pH 7.4, 5 mM EDTA, and 6 mM MgCl2) for D2 or the D4.2 buffer (50 mM Tris-HCl, pH 7.4, 5 mM EDTA, 1.5 mM CaCl2, 5 mM KCl, and 120 mM NaCl) and homogenized. The membranes were pelleted by centrifugation at 20,000×g at […] for 20 minutes. Then the pellets were resuspended in appropriate buffer at 1 mL/flask and stored at -70° C. until used in the receptor binding assay.
(§3) Receptor Binding Assays: D2,D4.2 Dopamine Receptors
(§4) After 60 minutes incubation at 25° C., the incubations were terminated by rapid filtration through Whatmann F/B lass fibre filters (soaked for 1 hour in 0.5% polyethylenimine) on a cell harvester, with three washes of 1 mL ice-cold buffer. Individual filter disks containing the bound ligand were placed in counting vials with 4 mL of scintillation fluid (Ready Gel, Beckman Instrument Inc., Fullerton, Calif.) and then counted in a Beckman LS-6800 liquid scintillation counter at an efficiency of 45%. Nonspecific binding was defined in presence of 1 mM of haloperidol.
(§5) Saturation and competition binding data were analyzed using an iterative nonlinear least-square curve-fitting Ligand program. In competition experiments, apparent Ki values were calculated from IC50 values by method of Cheng and Prusoff, "Relationship between the inhibition constant (Ki) and the concentration of inhibitor which causes 50% inhibition (IC50) of an enzymatic reaction," Biochem. Pharmacol., 1973;22:3099-3108. Experimental compounds were made up as stock solutions in dimethyl sulfoxide (DMSO). […] Each observation was carried out in triplicate. To allow these calculations, Ki values were measured for the interaction of various ligands with the receptor. […]

Test [1] deals with apomorphine-induced disruption of prepulse inhibition. As to conditions: rat, background statement; cited from earlier work.
In test [2] the test system is synthesis rates of rat brain catecholamines. As to conditions: ip.
Protocol: Test compounds were administered to rats i.p. 30 minutes before the injection of the L-aromatic amino acid decarboxylase inhibitor, NSD 1015 (100 mg/kg i.p.). Rats were sacrificed by decapitation 30 minutes later. The striatum and mesolimbic regions were rapidly dissected from the brains and stored at -70° C. until assayed. Synthesis rates of rat brain catecholamines were estimated by measuring the accumulation of the DA precursor DOPA after NSD 1015 administration by HPLC with electrochemical detection (Puglsey, et al., 1995). Each value represents the mean of four determinations and is expressed as a percent of the control values.
A further test concerns the target T2, human DA D4.2 receptor (Homo sapiens, UniProt P21917, DEL265-296).
T2 construct: expressed in transfected cells
T2 sequence (P21917 with tags, fused parts or gaps DEL265-296): T1 sequence (P21917 with tags, fused parts or gaps DEL265-296)
The experiment in a line: [3H]Thymidine uptake assay (block of quinpirole stimulation in CHO pro-5 cells transfected with human DA D4.2 receptor). In kind it is cell-based. The note with it: human D4.2, quinpirole-stimulated uptake. The method, then: Compounds were tested for their ability to bind to dopamine (DA) receptors as measured by their inhibition of [^3 H]spiperone binding to the human D2, and D4.2 receptors (Pugsley, et al., 1995). The ability of test compounds to block the stimulation of [^3 H]thymidine uptake in CHO pro-5 cells transfected with human DA D4.2 receptor cDNA caused by the DA agonist quinpirole was employed as an in vitro measure of DA receptor antagonist activity (Pugsley, et al., 1995). The effects of compounds on synthesis rates of rat brain catecholamines were estimated by measuring the accumulation of [3-(3,4-dihydroxyphenyl)-L-alanine (DOPA) after administration of the L-aromatic amino acid decarboxylase inhibitor, NSD 1015 (Pugsley, et al., 1995).
[^3 H]Thymidine Uptake Assay
The effects of test compounds on [^3 H]thymidine uptake were carried out essentially as described by Pugsley, et al., 1995. CHO p-5 cells transfected with human D4.2 cDNA were seeded into 96-well plates at a density of about 5000 cells/well and were grown at 37° C. in a minimum essential medium (aMEM, Gibco) with 10% calf serum for 2 days. The wells were then rinsed three times with serum-free media. Fresh media ([…]) was added along with […] of test compound in water or vehicle alone. Eight wells of each plate received […] of aMEM with 10% fetal calf serum. After culture for 16 to 17 hours, [3H]thymidine ([…]) was added for 4 hours. The cells were trypsinized and harvested onto filter mats with a 96-well Brandel cell harvester. The filters were counted in a Beta-Plate scintillation counter.

Test [3] deals with amphetamine-stimulated locomotion. The experiment in a line: Blockade of amphetamine-stimulated locomotion in rats. The test is classed as in vivo, rat. From the text: PROTOCOL FOR THE BLOCKADE OF AMPHETAMINE-STIMULATED LOCOMOTION IN RATS
The blockade of amphetamine-stimulated locomotion procedure is a modification of the Locomotor Activity Protocol in the Omnitech Digiscan Activity Monitors described above. The blockade of amphetamine-stimulated locomotion procedure uses the central nervous system stimulant d-amphetamine to assess antipsychotic activity of dopaminergic agents.
Male Sprague-Dawley rats (Harlan Labs) were used for these studies. Drugs were dissolved in saline or water, and administered either orally (PO) or intraperitoneally (IP) in volumes of 5 mL/kg. Saline control rats and amphetamine (0.5 mg/kg IP) control rats are included with each study (n=4-6 rats per treatment group). For the IP studies, amphetamine is given 20 minutes prior to the drug, after which a 30 minute locomotor activity test is conducted. For the oral study, drug is dosed 30 minutes prior to the test, while amphetamine is given 15 minutes prior to the test, which allows time for oral absorption. Locomotor activity (centimeters travelled per 30 minute test) is measured in 16"×16" open chambers. Amphetamine generally produces a 2- to 3-fold increase in locomotion over saline controls. Drug effects are reported as percent reversal of amphetamine-stimulated locomotion. Significant changes in amphetamine-stimulated locomotion, relative to amphetamine treated controls, were determined by t-test. The dose which would reverse amphetamine-stimulated locomotion by 50% (ED50) and the 95% confidence limits were estimated by regression analysis.

Another test addresses human D2 receptor (Homo sapiens, UniProt P14416). The experiment in a line: Inhibition of [3H]spiperone binding to human dopamine D2 receptors. The note with it: human D2 (Long form), CHO K1 membranes.
Excerpt: as §1, §2, §3, §4, §5

pIC50: −log10 of the molar value. Where two headings read alike, the source gives them in different places.

human D2 receptor, sequence (P14416 whole entry): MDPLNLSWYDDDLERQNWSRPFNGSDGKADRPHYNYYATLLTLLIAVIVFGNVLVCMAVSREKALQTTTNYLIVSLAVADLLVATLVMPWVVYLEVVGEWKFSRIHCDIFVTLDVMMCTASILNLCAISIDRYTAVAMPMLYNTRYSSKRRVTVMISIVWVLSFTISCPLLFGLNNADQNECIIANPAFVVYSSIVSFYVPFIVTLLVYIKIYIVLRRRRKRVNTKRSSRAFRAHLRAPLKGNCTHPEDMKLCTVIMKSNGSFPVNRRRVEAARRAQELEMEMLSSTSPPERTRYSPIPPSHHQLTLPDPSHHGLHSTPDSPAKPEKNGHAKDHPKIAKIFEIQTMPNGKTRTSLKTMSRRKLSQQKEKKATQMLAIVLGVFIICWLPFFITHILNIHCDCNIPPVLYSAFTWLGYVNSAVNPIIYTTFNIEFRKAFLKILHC

At human D4.2 receptor, `Fc1ccc(N2CCN(Cc3ccc4c(c3)NCCN4)CC2)cc1` [Example 6, 6-[4-(4-Fluorophenyl)piperazin-1-ylmethyl]-1,2,3,4-tetrahydroquinoxaline] had a pIC50 of 7.30.

Turning to `O=C(CCCN1CCC(O)(c2ccc(Cl)cc2)CC1)c1ccc(F)cc1` [haloperidol], in test [1], the “antagonism of DA agonist-induced disruption of PPI (result in words)” value is recorded as “can be antagonized”.

For `Clc1ccc(N2CCN(Cc3ccc4c(c3)NCCN4)CC2)cc1` [Example 5, 6-[4-(4-Chlorophenyl)piperazin-1-ylmethyl]1,2,3,4-tetrahydroquinoxaline], the results for the pIC50 at human D4.2 receptor and on human DA D4.2 receptor were 8.22 and 7.72, respectively. The “DA Synthesis in Rat Striatum” value in test [2] is given as “+20% of the control values”.

For the compound `CC(N)Cc1ccccc1` (stereo not drawn) [amphetamine], the “blocking of PPI by DA agonists (result in words)” value in test [1] was “can be blocked”.

`COc1ccc(N2CCN(Cc3ccc4c(c3)NCCN4)CC2)cc1` [Example 4, 6-[4-(4-Methoxyphenyl)piperazin-1-ylmethyl]-1,2,3,4-tetrahydroquinoxaline] showed a pIC50 on human D4.2 receptor of 7.41.

For `Cc1ccnc(N2CCN(Cc3ccc4c(c3)NCCN4)CC2)c1` [Example 10, 6-[4-(4-Methylpyridin-2-yl)piperazin-1-ylmethyl]-1,2,3,4-tetrahydroquinoxaline], the pIC50 on human D4.2 receptor was 7.46.

On to `Cc1ccc(N2CCN(Cc3ccc4c(c3)NCCN4)CC2)cc1Cl` [Example 1, 6-[4-(3-Chloro-4-methylphenyl)piperazin-1-ylmethyl]-1,2,3,4-tetrahydroquinoxaline], for which the “blockade of amphetamine-stimulated locomotion (result in words)” value in test [3] (rat, 3, 10, and 30 mg/kg IP) is “dose-dependent blockade”. For the same compound, the median effective dose (ED50) was 9.1 mg/kg in test [3] (rat, IP, read-out: blockade of amphetamine-stimulated locomotion ED50) and greater than 30 mg/kg in test [3] (rat, PO, read-out: oral blockade of amphetamine-stimulated locomotion ED50). Also, the pIC50 was 5.74 at human D2 receptor, 8.41 at human D4.2 receptor and 8.00 on human DA D4.2 receptor. Further, the “DA Synthesis in Rat Hippocampus” value in test [2] is “+62% of the control values”. In addition, the “DA Synthesis in Rat Striatum” value in test [2] is -9% of the control values.

`c1ccc(N2CCN(Cc3ccc4c(c3)NCCN4)CC2)cc1` [Example 3, 6-(4-Phenylpiperazin-1-ylmethyl)-1,2,3,4-tetrahydroquinoxaline]: the pIC50 at human D2 receptor is 5.49; at human D4.2 receptor it was 7.30.

For `Clc1ccc(N2CCN(Cc3ccc4c(c3)NCCN4)CC2)cc1Cl` [Example 7, 6-[4-(3,4-Dichlorophenyl)piperazin-1-ylmethyl]-1,2,3,4-tetrahydroquinoxaline], the “blockade of amphetamine-stimulated locomotion” value in test [3] (rat, 30 mg/kg PO) was determined as 100%. The pIC50 was 5.78 on human D2 receptor and 8.30 at human D4.2 receptor. The “DA Synthesis in Rat Striatum” value in test [2] is “+23% of the control values”.

Turning to `CN1CCc2cccc3c2[C@H]1Cc1ccc(O)c(O)c1-3` [apomorphine], the “blocking of PPI by DA agonists (result in words)” value in test [1] was “can be blocked”.

Take `Cc1ccc(N2CCN(Cc3ccc4c(c3)NCCN4)CC2)cc1` [Example 8, 6-(4-p-Tolylpiperazin-1-ylmethyl)-1,2,3,4-tetrahydroquinoxaline]: the pIC50 is 7.95 at human D4.2 receptor and 8.09 at human DA D4.2 receptor. The “DA Synthesis in Rat Striatum” value in test [2] is “+39% of the control values”.

In the case of `FC(F)(F)c1cccc(N2CCN(Cc3ccc4c(c3)NCCN4)CC2)c1` [Example 11, 6-[4-(3-Trifluoromethylphenyl)piperazin-1-ylmethyl]-1,2,3,4-tetrahydroquinoxaline], the pIC50 was 6.17 on human D2 receptor and 7.66 at human D4.2 receptor.

At human D4.2 receptor, `Cc1cccc(N2CCN(Cc3ccc4c(c3)NCCN4)CC2)c1` [Example 9, 6-(4-m-Tolylpiperazin-1-ylmethyl)-1,2,3,4-tetrahydroquinoxaline] had a pIC50 of 7.44.

Take `CN1CCN(C2=Nc3cc(Cl)ccc3Nc3ccccc32)CC1` [clozapine]: in test [1], the “antagonism of DA agonist-induced disruption of PPI (result in words)” value is given as “can be blocked”.

One may read the pIC50 as the IC50 on a negative log10 scale, so that one unit is a factor of ten. A higher pIC50 goes with a low IC50. The term ED50 denotes the dose that gives a 50% effect, or the effect in half of the subjects.
